Reference: patent US7935708B2, “Dihydropyrazolopyrimidinone derivatives” (MSD K.K., priority 2006, dated 2011)

How the values were obtained:
[1] = tested on: Human colon cancer cells (WiDr); assay: Checkpoint escape effect in gemcitabine-treated WiDr cells (phosphorylated histone H3-positive cells); format: cell-based; conditions: gemcitabine 100 nM 24 hours, then test compound with nocodazole 8 hours
From the text: Pharmaceutical Text 3 (Method of Determining Drug Potency in Cells (Checkpoint-Removing Effect))
Fetal bovine serum (FBS) was obtained from Morgate; DMEM was from Invitrogen; gemcitabine was from Nippon Eli Lilly; nocodazole and 4′,6-diamidino-2-phenylindole were from Sigma; rabbit anti-phosphorylated histone H3 antibody was from Upstate; and fluorescence-labeled (Alexa Fluor 488) anti-rabbit IgG antibody was from Molecular Probe.
Human colon cancer cells (WiDr) were obtained from American Type Culture Collection (ATCC).
(§1) c) Method of Effect Determination:
The cells were suspended in DMEM containing 10% FBS, and the cell suspension was applied to a poly-D-lysine-coated 96-well plastic plate (bought from Becton Dickinson) in an amount of 2000 cells/100 μL/well, in which the cells were incubated overnight in 5% CO2-95% air at 37° C. Gemcitabine was dissolved in phosphate-buffered saline (PBS), and diluted with DMEM containing 10% FBS, and then this was applied to the plate on which the cells had been previously sowed, in an amount of 50 μL/well in such a manner that the final concentration of gemcitabine could be 100 nM. Then, the cells were incubated for 24 hours at 37° C. in 5% CO2-95% air. The test compound was stepwise diluted with dimethylsulfoxide, then diluted with 1200 nM nocodazole-containing DMEM containing 10% FBS, and applied to the plate on which the gemcitabine-treated cells had been sowed, in an amount of 50 μL/well. […] Next, this was washed with PBS, and a solution containing 4′,6-diamidino-2-phenylindole that had been diluted with 1% BSA/PBS to have a concentration 10 μg/mL and a fluorescence-labeled (Alexa Fluor 488) anti-rabbit IgG antibody that had been diluted 250-fold was added to it in an amount 50 μL/well, and reacted in a dark place at room temperature for 60 minutes. Finally, this was washed with PBS, and its fluorescence intensity was determined to calculate the ratio of the phosphorylated histone H3-positive cells (cells that had been in a cell division cycle through removal of checkpoint). […]

[2] = tested on: Cdc2 (Cdk1) tyrosine 15 phosphorylation in NCI-H1299 cells; assay: Cdc2 (Cdk1) tyrosine 15-phosphorylation-inhibitory effect in camptothecin-treated NCI-H1299 cells (ELISA); format: cell-based; conditions: Homo sapiens, camptothecin 200 nM 16 hours, then test compound with nocodazole 8 hours, read-out: Cdc2-Y15 Phosphorylation-Inhibitory Effect (H1299, + camptothecin) (EC50)
From the text: Pharmaceutical Text 2 (Method of Determining Drug Potency in Cells (Cdc2 (Cdk1) Tyrosine 15-Phosphorylation-Inhibitory Effect))
Fetal bovine serum (FBS) was obtained from Morgate; media RPMI1640 and DMEM were from Invitrogen; camptothecin was from Sigma; gemcitabine was from Nippon Eli Lilly; nocodazole and protease inhibitor cocktail were from Sigma; rabbit anti-Cdc2 antibody and mouse anti-Cdc2 antibody were from Santa Cruz Biotechnology; rabbit anti-tyrosine 15-phosphorylated Cdc2 antibody and horseradish peroxidase-labeled anti-mouse IgG antibody were from Cell Signaling Technology; sure blue reserve TMB peroxidase substrate was from Kirkegaard and Perry Laboratories.
Human non-small cell lung cancer cells (NCI-H1299) and human colon cancer cells (WiDr) were obtained from American Type Culture Collection (ATCC).
as §1
In the method of using NCI-H1299 cells, the cells were suspended in RPMI1640 containing 10% FBS, and the cell suspension was applied to a 96-well Nunclondelta-processed plastic plate (bought from Nunc), in an amount of 2000 cells/100 μL/well, in which the cells were incubated overnight in 5% CO2-95% air at 37° C. Camptothecin was dissolved in dimethylsulfoxide (DMSO), and diluted with RPMI1640 containing 10% FBS, and then this was applied to the plate on which the cells had been previously sowed, in an amount of 50 μL/well in such a manner that the final concentration of camptothecin could be 200 nM. Then, the cells were incubated for 16 hours at 37° C. in 5% CO2-95% air. The test compound was stepwise diluted with DMSO, then diluted with 4000 nM nocodazole-containing RPMI1640 containing 10% FBS, and applied to the plate on which the camptothecin-treated cells had been sowed, in an amount of 50 μL/well. The cells were incubated for 8 hours at 37° C. in 5% CO2-95% air, then the medium was removed, and a cytolytic buffer was added to the plate in an amount of 100 μL/well, shaken at 4° C. for 2 hours, then frozen at −80° C., and melted to give a cell solution. Cdc2 and tyrosine 15-phosphorylated Cdc2 in the cell solution were determined through enzyme-linked immunosorbent assay (ELISA), and the ratio of tyrosine 15-phosphorylated Cdc2 to Cdc2 was calculated to obtain the 50% phosphorylation-inhibitory concentration of the test compound to the cells (EC50, nM). The cytolytic buffer used herein is an aqueous solution containing 20 mM Hepes (pH 7.5), 150 mM sodium chloride, 1 mM disodium ethylenediaminetetraacetate, 0.1% polyoxyethylene (10) octylphenyl ether, 1% protease inhibitor cocktail, 1 mM dithiothreitol, 2 mM sodium orthovanadate, 10 mM sodium fluoride and 10 mM glycerol diphosphate. Cdc2 was determined through ELISA as follows: A rabbit anti-Cdc2 antibody solution, which had been diluted 200-fold with 50 mM carbonate-bicarbonate buffer (pH 9.6), was applied to a 96-well maxisorpimmuno plate (bought from Nunc), in an amount of 50 μL/well, and statically kept overnight at 4° C. so as to fix the antibody on the plate. Next, this was washed three times with phosphate-buffered saline (PBS), and 5% bovine serum albumin-containing PBS (5% BSA/PBS) was added thereto in an amount of 300 μL/well, and statically kept at room temperature for 2 hours, and then again washed three times with PBS. A mouse anti-Cdc2 antibody solution that had been diluted 100-fold with 0.05% polyoxyethylene sorbitan monolaurate and 1% BSA-containing Tris-HCl-buffered saline (1% BSA/TBS-T) was added to it in an amount of 50 μL/well, and the cell solution was added thereto in an amount of 5 μL/well and statically kept overnight at 4° C. Next, this was washed three times with 0.05% polyoxyethylene sorbitan monolaurate and 0.1% BSA-containing Tris-HCl-buffered saline (0.1% BSA/TBS-T), and then a horseradish peroxidase-labeled anti-mouse IgG antibody solution that had been diluted 2000-fold with 1% BSA/TBS-T was added thereto in an amount of 70 μL/well, and statically kept at room temperature for 3 hours. […]

[3] = tested on: Human colon cancer cells WiDr; assay: Tumor growth-inhibitory effect, WiDr implanted subcutaneously in nude rats; format: in vivo, F344/N Jcl-mu nude rats; conditions: statement on Table 5
Procedure: Pharmaceutical Test 4 (Tumor Growth-Inhibitory Effect)
Human colon cancer cells WiDr (gotten from ATCC) were implanted into the subcutaneous area of the back of F344/N Jcl-mu nude rats. Eight days after the implantation, gemcitabine (50 mg/kg, Gemzar injection, Eli-Lilly) was intravenously administered to them; and after 24 hours, a test compound was dissolved in a solvent (5% glucose) and given to them through continuous intravenous injection for 8 hours. The tumor volume (0.5×(major diameter)×(minor diameter)^2) was determined on day 0, 3, 6, 10 and 13. Day 0 means the day on which gemcitabine was administered. The relative tumor volume is a relative value, as calculated on the basis of the tumor volume of 1 on day 0. The tumor growth percentage (% T/C) was obtained according to the following formula:
When the tumor volume change from day 0 in the group subjected to test compound administration is more than 0 (>0): % T/C=[(tumor volume change in the test compounds on day 3, 6, 10, 13)/(tumor volume change in the control on day 3, 6, 10, 13)]×100. When the tumor volume change from day 0 in the group subjected to test compound administration is less than 0 (<0): % T/C=[(tumor volume change in the test compounds on day 3, 6, 10, 13)/(tumor volume […])]×100.

EC50 [1] [nM] | EC50 [2] [nM] | Structure (SMILES) | tumor growth percentage (in words) [3]
110 | 100 | CC(C)n1c(=O)c2cnc(Nc3ccc(C4CCN(C)CC4)cc3)nc2n1-c1cccc(C(C)(C)O)n1 [Example 147, 1-[6-(1-hydroxy-1-methylethyl)pyridin-2-yl]-2-isopropyl-6-{[4-(1-methylpiperidin-4-yl)phenyl]amino}-1,2-dihydro-3H-pyrazolo[3,4-d]pyrimidin-3-one] | 
 |  | Nc1ccn([C@@H]2O[C@H](CO)[C@@H](O)C2(F)F)c(=O)n1 [Gemcitabine, gemcitabine] | reduced the tumor growth percentage
